Measurements: patent US20060204457A1, “Cosmetic uv-screen compositions and aminobutadiene-based uv-absorbing complexes therefor” (priority 2003, published 2006)

Assay: Dye stability under Xenon test conditions; UV absorption after Xenon exposure
Format: physicochemical
Conditions: thin layer on TAC base
Description: Measurements are carried out at the Ci 4000 Xenon Weather-Ometer of Atlas Electric Devices Company. The extinction wavelength spectrum represents sunlight spectrum. Experiments are carried out with samples consisting of thin layers of UV absorbing complexes coated on TAC base materials, and dryed under air before Xenon radiation was started.
Solutions for coating on the TAC sheet materials are prepared by making a 5% gelatin solution of UV-gelatin in a suitable solvent (water/ethanol 50:50) for 30 minutes at a temperature of 40 C.
A fixed concentration of the UV absorbing complex was applied with a concentration of 5*10^−3 Mol/L
UV absorption of samples is measured with standard UV spectrophotometer system. UV absorption is directly correlated to the number of functional molecules in the samples after the Xenon treatment, and the results are listed in the following table.
UV absorption after Xenon radiation (in hours treatment time).

O=c1c(O)c(-c2ccc(O)c(O)c2)oc2cc(O)cc(O)c12 [Quercetin]
UV absorption after Xenon radiation (0 hours treatment time): 0.85
UV absorption after Xenon radiation (40 hours treatment time): 0.53
UV absorption after Xenon radiation (80 hours treatment time): 0.20
UV absorption after Xenon radiation (120 hours treatment time): 0.14
